Data reported in PubChem BioAssay (NCI).
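GI50: concentration for 50% inhibition of growth. Definition used: TGI = concentration required for complete inhibition of growth.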

How the values were obtained:
Assay in all cases: growth of human tumour cells (NCI), 384-well format
MALME-3M melanoma = test system: MALME-3M melanoma
HS 578T breast = test system: HS 578T breast
SNB-19 CNS = test system: SNB-19 CNS
MDA-MB-435 melanoma = test system: MDA-MB-435 melanoma
NCI-H322M lung = test system: NCI-H322M lung
A549 NSCLC = test system: A549 NSCLC
SF-539 CNS = test system: SF-539 CNS
NCI/ADR-RES ovarian = test system: NCI/ADR-RES ovarian
EKVX NSCLC = test system: EKVX NSCLC
MDA-MB-231 breast = test system: MDA-MB-231 breast
BT-549 breast = test system: BT-549 breast
SK-MEL-2 melanoma = test system: SK-MEL-2 melanoma
HOP-92 NSCLC = test system: HOP-92 NSCLC
SK-OV-3 ovarian = test system: SK-OV-3 ovarian
M14 melanoma = test system: M14 melanoma
SW-620 colon = test system: SW-620 colon
ACHN renal = test system: ACHN renal
NCI-H460 NSCLC = test system: NCI-H460 NSCLC
T-47D breast = test system: T-47D breast
RXF 393 renal = test system: RXF 393 renal
KM12 colon = test system: KM12 colon
MCF7 breast = test system: MCF7 breast
A498 renal = test system: A498 renal
IGROV1 ovarian = test system: IGROV1 ovarian
UACC-62 melanoma = test system: UACC-62 melanoma
UACC-257 melanoma = test system: UACC-257 melanoma
OVCAR-8 ovarian = test system: OVCAR-8 ovarian
HOP-62 NSCLC = test system: HOP-62 NSCLC
NCI-H522 lung = test system: NCI-H522 lung
COLO 205 colon = test system: COLO 205 colon
HCC-2998 colon = test system: HCC-2998 colon
TK-10 renal = test system: TK-10 renal
HT29 colon = test system: HT29 colon
OVCAR-5 ovarian = test system: OVCAR-5 ovarian
NCI-H23 lung = test system: NCI-H23 lung
OVCAR-3 ovarian = test system: OVCAR-3 ovarian
SK-MEL-5 melanoma = test system: SK-MEL-5 melanoma
NCI-H226 lung = test system: NCI-H226 lung
SK-MEL-28 melanoma = test system: SK-MEL-28 melanoma
786-0 renal = test system: 786-0 renal
DU-145 prostate = test system: DU-145 prostate
SNB-75 CNS = test system: SNB-75 CNS
MDA-MB-468 breast = test system: MDA-MB-468 breast
PC-3 prostate = test system: PC-3 prostate
U251 glioblastoma = test system: U251 glioblastoma
SN12C renal = test system: SN12C renal
SF-295 CNS = test system: SF-295 CNS
HL-60(TB) leukemia = test system: HL-60(TB) leukemia
HCT-15 colon = test system: HCT-15 colon
MOLT-4 leukemia = test system: MOLT-4 leukemia
SR leukemia = test system: SR leukemia
RPMI-8226 leukemia = test system: RPMI-8226 leukemia
OVCAR-4 ovarian = test system: OVCAR-4 ovarian
CAKI-1 renal = test system: CAKI-1 renal
CCRF-CEM leukemia = test system: CCRF-CEM leukemia
SF-268 CNS = test system: SF-268 CNS

Cc1[nH]c(/C=C2\C(=O)Nc3ccccc32)c(C)c1CCC(=O)O
GI50 (MALME-3M melanoma): 5.47 µM
TGI (MALME-3M melanoma): 23.1 µM
GI50 (HS 578T breast): 22.1 µM
TGI (HS 578T breast): 78.7 µM
GI50 (SNB-19 CNS): 61.7 µM
TGI (SNB-19 CNS): > 100 µM
GI50 (MDA-MB-435 melanoma): 21.3 µM
TGI (MDA-MB-435 melanoma): 51.4 µM
GI50 (NCI-H322M lung): 38.4 µM
TGI (NCI-H322M lung): > 100 µM
GI50 (A549 NSCLC): 29.2 µM
TGI (A549 NSCLC): 84.7 µM
GI50 (SF-539 CNS): 13.1 µM
TGI (SF-539 CNS): 45.4 µM
GI50 (NCI/ADR-RES ovarian): 31.9 µM
TGI (NCI/ADR-RES ovarian): > 100 µM
GI50 (EKVX NSCLC): 17.6 µM
TGI (EKVX NSCLC): 52.7 µM
GI50 (MDA-MB-231 breast): 16.5 µM
TGI (MDA-MB-231 breast): 53 µM
GI50 (BT-549 breast): 18 µM
TGI (BT-549 breast): 42.3 µM
GI50 (SK-MEL-2 melanoma): 24 µM
TGI (SK-MEL-2 melanoma): 41.7 µM
GI50 (HOP-92 NSCLC): 19.8 µM
TGI (HOP-92 NSCLC): 43.3 µM
GI50 (SK-OV-3 ovarian): 14.3 µM
TGI (SK-OV-3 ovarian): 38.7 µM
GI50 (M14 melanoma): 15.1 µM
TGI (M14 melanoma): 33.9 µM
GI50 (SW-620 colon): 19.6 µM
TGI (SW-620 colon): 41.4 µM
GI50 (ACHN renal): 24.6 µM
TGI (ACHN renal): 68.4 µM
GI50 (NCI-H460 NSCLC): 17.6 µM
TGI (NCI-H460 NSCLC): 34.2 µM
GI50 (T-47D breast): 53.7 µM
TGI (T-47D breast): > 100 µM
GI50 (RXF 393 renal): 56 µM
TGI (RXF 393 renal): > 100 µM
GI50 (KM12 colon): 4.33 µM
TGI (KM12 colon): 52.9 µM
GI50 (MCF7 breast): 39.9 µM
TGI (MCF7 breast): > 100 µM
GI50 (A498 renal): 29 µM
TGI (A498 renal): > 100 µM
GI50 (IGROV1 ovarian): 25.6 µM
TGI (IGROV1 ovarian): 86.5 µM
GI50 (UACC-62 melanoma): 25.9 µM
TGI (UACC-62 melanoma): 70.3 µM
GI50 (UACC-257 melanoma): 17.7 µM
TGI (UACC-257 melanoma): 47.8 µM
GI50 (OVCAR-8 ovarian): 32 µM
TGI (OVCAR-8 ovarian): > 100 µM
GI50 (HOP-62 NSCLC): 42.4 µM
TGI (HOP-62 NSCLC): > 100 µM
GI50 (NCI-H522 lung): 21.2 µM
TGI (NCI-H522 lung): 62.1 µM
GI50 (COLO 205 colon): 22.8 µM
TGI (COLO 205 colon): 38.7 µM
GI50 (HCC-2998 colon): 24.1 µM
TGI (HCC-2998 colon): 75.3 µM
GI50 (TK-10 renal): 23.2 µM
TGI (TK-10 renal): 59.3 µM
GI50 (HT29 colon): 26 µM
TGI (HT29 colon): 67.6 µM
GI50 (OVCAR-5 ovarian): 20.2 µM
TGI (OVCAR-5 ovarian): 55.3 µM
GI50 (NCI-H23 lung): 16.6 µM
TGI (NCI-H23 lung): 40.1 µM
GI50 (OVCAR-3 ovarian): 27.4 µM
TGI (OVCAR-3 ovarian): 89 µM
GI50 (SK-MEL-5 melanoma): 17.2 µM
TGI (SK-MEL-5 melanoma): 36 µM
GI50 (NCI-H226 lung): 15.3 µM
TGI (NCI-H226 lung): 34.4 µM
GI50 (SK-MEL-28 melanoma): 23.1 µM
TGI (SK-MEL-28 melanoma): 52.6 µM
GI50 (786-0 renal): 52 µM
TGI (786-0 renal): > 100 µM
GI50 (DU-145 prostate): 35.4 µM
TGI (DU-145 prostate): > 100 µM
GI50 (SNB-75 CNS): 11.7 µM
TGI (SNB-75 CNS): > 100 µM
GI50 (MDA-MB-468 breast): 16.3 µM
TGI (MDA-MB-468 breast): 32.6 µM
GI50 (PC-3 prostate): 24.6 µM
TGI (PC-3 prostate): 81.9 µM
GI50 (U251 glioblastoma): 35 µM
TGI (U251 glioblastoma): > 100 µM
GI50 (SN12C renal): 27.7 µM
TGI (SN12C renal): 89.3 µM
GI50 (SF-295 CNS): > 100 µM
TGI (SF-295 CNS): > 100 µM
GI50 (HL-60(TB) leukemia): 23.9 µM
TGI (HL-60(TB) leukemia): 39.2 µM
GI50 (HCT-15 colon): 25.3 µM
TGI (HCT-15 colon): 59.6 µM
GI50 (MOLT-4 leukemia): 16.3 µM
TGI (MOLT-4 leukemia): 30.3 µM
GI50 (SR leukemia): 19.1 µM
TGI (SR leukemia): 33.3 µM
GI50 (RPMI-8226 leukemia): 16.2 µM
TGI (RPMI-8226 leukemia): 30.5 µM
GI50 (OVCAR-4 ovarian): 22.6 µM
TGI (OVCAR-4 ovarian): > 100 µM
GI50 (CAKI-1 renal): 15.1 µM
TGI (CAKI-1 renal): 40.3 µM
GI50 (CCRF-CEM leukemia): 18.1 µM
TGI (CCRF-CEM leukemia): 34.4 µM
GI50 (SF-268 CNS): 24.5 µM
TGI (SF-268 CNS): 73.9 µM
